In patent US12352767B2, “Method of treating cognitive decline associated with neurological diseases based on a decrease in FLT4 expression or activity” (University of Virginia Patent Foundation, priority 2018, dated 2025):
“Also recorded” adds a separate entry of the source.

Columns and labels:
5×FAD mice = assay: Amyloid pathology in meninges and hippocampus of 5xFAD mice (Aβ immunostaining); type: in vivo
Description: (§1) Male or female wild-type mice (C57BL/6J background) were either bred in-house, purchased from the Jackson Laboratory (Bar Harbor, Maine, USA) or provided by the National Institutes of Health/National Institute on Aging (Bethesda, MD, USA). All mice were maintained in the animal facility for habituation for at least 1 week prior to the start of the manipulation/experimentation. C57BL/6J wild-type mice were tested at 2-3, 12-14 and 20-24 months of age. Male hemizygous B6.Cg-Tg(PDGFB-APPSwInd)20Lms/2Mmjax (J20, JAX stock #006293) and B6.Cg-Tg(APPSwFILon,PSEN1*M146L*L286V)6799Vas/Mmjax (5×FAD, JAX stock #008730) were purchased from the Jackson Laboratory and bred in-house on a C57BL/6J background. […] 5×FAD hemizygous mice overexpress the transgene constructs under neural-specific elements of the mouse thymocyte differentiation antigen 1 promoter and present accelerated accumulation of Aβ42 and deposition of amyloid and gliosis in the brain starting at 2 months of age, with dramatic amyloid plaque load without major behavioral deficits at 5 months^45. In-house bred male transgene carriers and non-carrier (WT) littermates were used at different ages that are indicated throughout the manuscript. Prox1^LacZ mice (designated Prox1^+/− mice in this manuscript) on a NMRI background (kindly provided by Dr. Guillermo Oliver, Northwestern University, Chicago, IL) were also bred in-house and used in this study as a constitutive model for dysfunctional lymphatic vessels^46. Mice of all strains were housed in an environment with controlled temperature and humidity, on 12 hours light/dark cycles (lights on at 7:00), and fed with regular rodent's chow and sterilized tap water ad libitum. All experiments were approved by the Institutional Animal Care and Use Committee of the University of Virginia.

J20 mice = assay: Amyloid pathology in meninges and hippocampus of J20 mice (Aβ immunostaining); type: in vivo
Description: as §1, with “Prox1^LacZ mice (designated Prox1^+/− mice in this manuscript) on a NMRI background (kindly provided by Dr. Guillermo Oliver, Northwestern University, Chicago, IL) were also bred in-house and used in this study as a constitutive model for dysfunctional lymphatic vessels^46. Mice of all strains were housed in an environment with controlled temperature and humidity, on 12 hours light/dark cycles (lights on at 7:00), and fed with regular rodent's chow and sterilized tap water ad libitum. All experiments were approved by the Institutional Animal Care and Use Committee of the University of Virginia.” left out

mice = assay: Open field test; type: in vivo; conditions: Visudyne/photoconversion twice, two-week interval, adult mice
Description: Open field was performed following a published protocol^51 with minor modifications. Mice were carried to the behavior room to habituate at least 30 min before starting the test. Mice were then placed into the open field arena (made of opaque white plastic material, 35 cm×35 cm) by a blinded experimenter and allowed to explore it for 15 min. Total distance (cm) and % time spent in the center (22 cm×22 cm) were quantified using video tracking software (TopScan, CleverSys, Inc.).

brain parenchyma = assay: Efflux of fluorescent tracers injected into the brain parenchyma; type: in vivo, mice; conditions: 7 days after Visudyne/photoconversion, vs both control groups
Description: An incision was made in the skin to expose the skull and a hole was drilled at +1.5 mm in the anterior-posterior axis and −1.5 mm in the medial-lateral axis relative to bregma. Then, using a Hamilton syringe (coupled to a 33-gauge needle) placed at +2.5 mm in the dorsal-ventral axis (relative to bregma), 1 μL of either Alexa Fluor® 647 conjugated OVA (at 0.5 mg/mL), HiLyte™ Fluor 647 conjugated Aβ42 (at 0.05 μg/mL, AnaSpec, Inc.) or BODIPY™ FL conjugated low density lipoprotein (LDL) from human plasma (at 0.1 mg/mL, Thermo Fisher Scientific) in artificial CSF were injected at a rate of 0.2 μL/min into the brain parenchyma. […] After injecting, the syringe was left in place for additional 5 min to prevent back-flow.

[1] = tested on: intracranial vasculature, blood-brain barrier, brain ventricles; conditions: mouse, in vivo
Description: All MRI acquisitions were performed at the University of Virginia Molecular Imaging Core facilities in a 7T Clinscan system (Bruker, Ettlingen, Germany) equipped with a 30 mm diameter cylindrical RF Coil. For analysis of mouse intracranial vascular structure, mice were placed in the 7T Clinscan system under light anaesthesia with isoflurane (1-1.25% in oxygen). Structural imaging data of intracranial arteries (magnetic resonance angiography or MRA) was acquired with a high-resolution 3D isotropic Spiral Cine Phase Contrast (SCPC) technique: repetition time (TR)=15 ms, echo time (TE)=0.63 ms, field of view (FOV)=25×25 mm, slice thickness=0.01 mm, number of sagittal slices=160, number of averages per phase-encode step (NEX)=1 and flip angle (FA)=20°. Total imaging time was of about 15 min per mouse. Structural imaging data of intracranial veins (magnetic resonance venography or MRV) was acquired with a high-resolution 3D isotropic SCPC technique with a saturation band positioned caudal to the slices, in order to saturate the arterial signal: TR=17 ms, TE=4.54 ms, FOV=17×26 mm, slice thickness=0.3 mm, number of sagittal slices=160, NEX=2 and FA=90°. Total imaging time was of about 13 min per mouse. Vascular volume and diameters were quantified using semi-automatic segmentation tools provided in the OsiriX software. For analysis of mouse brain ventricular volume, mice were placed in the 7T Clinscan system under light anaesthesia with isoflurane and structural imaging data were acquired with a high-resolution 3D isotropic T2-weighted SPACE technique with the following parameters: TR=3000 ms, TE=139 ms, FOV=26×20.5 mm, slice thickness=0.13 mm, number of slices=160 and NEX=3, requiring a total acquisition time of about 16 min per mouse. Ventricular volumes were quantified using semi-automatic segmentation tools provided in the OsiriX software.
Initially, a pre-contrast image was acquired after placing the mice in the 7T Clinscan system under light anaesthesia with isoflurane. Gadobenate dimeglumine (gadolinium or Gd, MultiHance, Bracco Diagnostics, Princeton, New Jersey) at 0.3 mmol/kg was then injected intravenously (i.v.), through a catheter inserted in the tail vein. To assess the rate of influx of a CSF tracer into the brain, mice were anaesthetized by i.p. injection of ketamine and xylazine in saline and an i.c.m. injection of 5 μL of Gd at a concentration of 25 mM in saline was performed. […] The mice were placed in the MRI apparatus and maintained under light anaesthesia with isoflurane. For MRI acquisition, maximum gradient strength of the system was 500 mT/m and the peak slew rate achievable was 6667 mT/m/ms. After i.v. injection of Gd or 10 min after injecting gadolinium into the CSF, a series of post-contrast T1-weighted images were taken through the head with the following parameters: TR=500 ms, TE=11 ms, FOV=20×20 mm with a 192×192 matrix (104 μm×104 μm resolution), slice thickness=0.7 mm, number of slices=22 and NEX=2. For i.v. Gd injection 5 post-contrast images were acquired requiring about 16 min per mouse (each sequence taken every 194 s). For brain influx of Gd injected into the CSF, the total acquisition time was of about 52 min per mouse (194 s×16 sequences per mouse), meaning that T1 images were acquired for approximately 1 hour post-injection.

[2] = tested on: brain/meningeal vasculature; assay: Photoacoustic imaging of brain/meningeal blood flow and oxygenation; type: in vivo; conditions: 5xFAD mice, 1 week after Visudyne/photoconversion
Description: Adult mice were maintained under anesthesia with 1.5% isoflurane and at a constant body temperature with the aid of a heating pad. A surgical incision was made in the scalp and the fascia was removed to expose the skull. One day prior to the imaging, the skull over the region of interest was thinned to the desired thickness (˜100 μm). Mice were then imaged by multi-parametric photoacoustic microscopy, which is capable of simultaneously image oxygen saturation of hemoglobin (sO2) and blood flow speed as described previously^50. Using the oxy-hemoglobin and deoxy-hemoglobin values, recorded using two nanosecond-pulsed lasers (532 and 559 nm), it is possible to compute the final sO2. Correlation analysis of adjacent A-line signals allows the quantification of blood flow speed within individual vessels. By segmenting major vessels within the region of interest, average values of the blood flow speed and sO2 were extracted for quantitative analysis.

[3] = Visudyne/photoconversion for 1.5 months

With verteporfin [Visudyne] the “amyloid deposition in the meninges” value (5×FAD mice; Visudyne/photoconversion every 3 weeks for 1.5 months from ~2 months of age) was “marked deposition of amyloid in the meninges”, the “brain amyloid burden in the hippocampi” value (5×FAD mice; [3]) was “aggravation of brain amyloid burden” and the “macrophage recruitment to Aβ aggregates in meninges” value (5×FAD mice; [3]) was “macrophage recruitment to large Aβ aggregates”. For the same substance, the “Aβ aggregates / amyloid deposition in the meninges” value (J20 mice; Visudyne/photoconversion every 3 weeks for 3 months) was “Aβ aggregates had formed in the meninges; also recorded: marked amyloid deposition”, the “Aβ plaque load (coverage) in the hippocampi” value (J20 mice; Visudyne/photoconversion for 3 months vs vehicle) was “significantly increased; also recorded: statistically significant increase in coverage” and the “open field time in center of the arena” value (mice) was “No differences between the groups”. The “open field total distance” value (mice) was “No differences between the groups”, the “levels of remaining tracers in brain parenchyma (Aβ42-HiLyte647, OVA-A647, LDL-BODIPY FL)” value (brain parenchyma; one hour after stereotaxic injection) was “higher levels of remnants” and the “Aβ42-HiLyte647 area fraction in the injected brain hemisphere” value (brain parenchyma) was “significantly higher level”. For the same substance, the “LDL-BODIPY FL area fraction in the injected brain hemisphere” value (brain parenchyma) was “significantly higher level”, the “OVA-A647 area fraction in the injected brain hemisphere” value (brain parenchyma) was “significantly higher level” and the arterial vessel volume [1] was “no significant changes between groups”. For the same substance, the basilar artery diameter [1] was “no significant changes between groups”, the “structure of major intracranial veins and arteries” value [1] was “not altered” and the “superior sagittal sinus (SSS) diameter” value [1] was “no significant changes between groups”. For the same substance, the venous vessel volume [1] was “no significant changes between groups”, the “blood flow in brain/meninges” value [2] was “no differences; also recorded: did not affect” and the “blood oxygenation in brain/meninges” value [2] was “no differences; also recorded: did not affect”.
